Measured values taken from US9644010B2, “LY6K epitope peptides for TH1 cells and vaccines containing the same” (ONCOTHERAPY SCIENCE, INC., priority 2012, dated 2017).

Tested on: LY6K-A24 (177-186) SP-specific CTLs
Assay: Propagation of LY6K-A24 (177-186) SP specific CTLs by stimulation with LY6K-LPs in HNMT patients
Assay type: cell-based, human
Description: PBMCs from 11 HNMT patients vaccinated with LY6K-A24 (177-186) SP were cultured with a mixture of LY6K (119-142) LP and LY6K (172-191) LP (10 micro-g/mL each) in a 24-well plate (2×10^6/well); rhIL-2 (20 IU/mL) and rhIL-7 (5 ng/mL) were added on day 0 and day 2. On day 0 (ex vivo) and day 7, the PBMCs were stained with a PE-labeled tetramer of the HLA-A*24:02/LY6K-A24 (177-186)-complex (MBL, Nagoya, Japan) with a FITC-labeled anti-human CD8 mAb.
Expression of LY6K-A24 (177-186) SP specific T cell receptor (TCR) was examined on a FACSCalibur (BD Biosciences) using a PE-labeled tetramer of the HLA-A*24:02/LY6K-A24 (177-186) SP complex (MBL, Nagoya, Japan) according to the manufacturer's instructions. A PE-labeled tetramer of the HLA-A*24:02/HIV-A24 (RYLRDQQLL: SEQ ID NO: 4) complex was used as a negative control.
PBMCs from 5 HNMT patients vaccinated with LY6K-A24 (177-186) SP were cultured with LY6K (172-191) LP (10 micro-g/mL each) in a 96-well plate (1×10^5/well); rhIL-2 (20 IU/mL) and rhIL-7 (5 ng/mL) were added on day 0 and day 2. On day 0 (ex vivo) and day 7, the PBMCs were stained with a PE-labeled tetramer of the HLA-A*24:02/LY6K-A24 (177-186)-complex with a FITC-labeled anti-human CD8 mAb.

## KCCKIRYCNLEGPPINSSVF [LY6K (172-191)]
HNMT108 PBMCs, day 7 after stimulation with LP 10 micro-g/mL (ex vivo day 0: 0.05%)
  frequency of LY6K-A24 (177-186)-specific CTLs (tetramer+ cells): 0.35 % of CD8^+ T-cells
PBMC of a head and neck cancer patient immunized with LY6K-A24 (177-186) SP, one week in vitro stimulation with LP
  expansion of LY6K-A24 (177-186) SP-specific CTL (tetramer): significantly expanded
PBMCs cultured 1 week with LY6K (172-191) LP 10 micro-g/mL
  HNMT patients after vaccination with increase of proportion of tetramer+ CD8+ cells more than 2 times: 4 of 5
